Measured values taken from patent US20250177329A1, “GPR120 AGONISTS FOR THE TREATMENT OF INFLAMMATORY BOWEL DISEASE” (Dompe' Farmaceutici SPA, priority 2022, published 2025).

Key:
DSS-induced colitis = assay: Mouse model of Dextran Sodium Sulfate-induced colitis; type: in vivo, female C57/B16 mice
Excerpt: A mouse model of colitis induced by administration of Dextran Sodium Sulfate (DSS) (Wirtz S. et al. Nature Protocols; Volume: 2, Issue: 3 Pages: 541-546; 2007) was used to study the therapeutic effect of oral administration of DFL23806 on colitis.
In details, 8- to 12-week-old female C57/B16 mice were subjected to 3 oral cycles of 2.5% Dextran Sodium Sulfate (DSS) in drinking water (molecular mass, 40 kDa; MP Biomedicals), each cycle characterized by 7 days of DSS administration followed by 7 days of filter-purified water.
From day 3 of DSS administration, the mice were divided in 4 experimental groups, each receiving the treatment specified below: • Group 1: DSS (n=8)
No treatment, used as negative control. • Group 2: DSS+Vehicle (n=8)
Treated with 20% v/v Dimethyl Sulfoxide (DMSO) and 80% v/v Phosphate Buffered Saline (PBS), 0.1 M, pH 8 (Vehicle), used as a negative control. • Group 3: DSS+DFL 90 mg/kg (n=8)
Treated with DFL23806 dissolved in Vehicle, at the dosage of 90 mg/kg once a day. • Group 4: DSS+5-ASA 60 mg/kg (n=8)
Treated with 5-aminosalicylic acid (5-ASA) in Vehicle, at the dosage of 60 mg/Kg once a day, used as reference positive control.
Vehicle, DFL23806 and 5-ASA were administered daily, in the morning, by oral gavage, using plastic sterile feeding tubes 20 ga×30 mm. All mice were sacrificed on day 39.
A DAI score was established based on a scale that considers different parameters characterizing experimental colitis induction and progression (R S Walmsley et al. Gut 1998; 43:29-32).
Body weight, presence of gross blood in the feces, and stool consistency were recorded every 2 days. In details, the DAI was determined at each time point by scoring changes in weight loss (0=none, 1=1%-5%, 2=5%-10%, 3=10%-20%, 4=>20%); stool consistency (0=normal, 2=loose, 4=diarrhea); and rectal bleeding (0=normal, 2=occult bleeding, 4=gross bleeding).
Mice were sacrificed at day 39, colon were collected and colon lengths measured for each mouse, as additional parameter of intestinal inflammation.
The day of sacrifice (day 39), mice were anesthetized with 2% isoflurane and subjected to endoscopy, to confirm the inflammatory grade. The experimental endoscopy setup, denoted “Coloview system”, consisted of a miniature endoscope (scope 1.9 mm outer diameter), a xenon light source, a triple chip camera, and an air pump (all from Karl Storz, Tuttlingen, Germany) to achieve regulated inflation of the mouse colon. The endoscopic procedure was viewed on a colour monitor and a modified murine endoscopic index score of colitis severity was assigned on the basis of colon translucency (0-3 points), granular features of the mucosa (0-3 points), morphology of the vascular pattern (0-4 points), and the presence of fibrin (0-4 points), as previously described by Dr. D'Alessio (D'Alessio, S. et al. J. Clin. Invest. 124, 3863-3878; 2014) leading to a cumulative score between 0 (no signs of inflammation) and […] (endoscopic signs of very severe inflammation).
Histological analysis has been performed by an expert pathologist, in a blinded fashion, to grade the intestinal inflammation. More in details, colons of colitic mice in the various experimental groups have been evaluated for histological analyses using […] paraffin-embedded sections, stained with hematoxylin (Dako) and eosin (Diapath). A blinded pathologist evaluated the degree of inflammatory cell infiltration and mucosal damage, using the RACHMILEWITZ score (Table 1) (Rachmilewitz, D. et al. Gastroenterology 122, 1428-1441; 2002).

[1] = Plasma pharmacokinetics after single oral administration to mice; type: in vivo; details: male, CD1, mouse, single oral dose (Dose_PO: 10.0-90.0 mg/kg)
Excerpt: The purpose of this study was to evaluate plasma and tissue exposure of the following compounds after a single oral administration to mice: • 7-(3-(N-(4-fluoro-2,6-dimethylphenyl)sulfamoyl)phenyl)heptanoic acid (indicated below as DFL23806), • 7-(3-(N-(4-chloro-2,6-dimethylphenyl)sulfamoyl)phenyl)heptanoic acid (indicated below as DFL23914) • 7-(3-(N-(2,6-dimethyl-4-(trifluoromethyl)phenyl)sulfamoyl)phenyl)heptanoic acid (indicated below as DFL23922) • 7-(3-(N-(6-fluoro-4-methyl-[1,1′-biphenyl]-3-yl)sulfamoyl)phenyl)heptanoic acid (indicated below as DFL23916) • 7-(3-(N-(5-fluoro-3-methyl-[1,1′-biphenyl]-2-yl)sulfamoyl)phenyl)heptanoic acid (indicated below as DFL23917) • 7-(3-{[4-fluoro-2-methyl-5-(thiophen-2-yl)phenyl]sulfamoyl}phenyl)heptanoic acid (indicated below as DFL24102) […]
A retro-orbital, composite blood sampling at pre-dose or after dosing at 30 min, 1, 2, 6, 8 and 24 hours (three mice/time point) was carried out for the plasma pharmacokinetic assessment. Blood samples were collected in heparinized collection tubes. Samples were taken immediately onto ice and kept cool until centrifugation (10000 g for 3 minutes at about +4° C.). About 50 μL of plasma were stored in a freezer at −80° C. pending analysis.
After samples collection, bioanalysis for concentrations of the test compounds were done using HPLC-MS/MS methods and pharmacokinetic analysis of the compounds in plasma and tissues was performed according to standard non-compartmental approach using Watson system (v 7.6, Thermo Fisher Scientific Waltham, MA, USA) on mean concentration data.

[2] = DFL23806 90 mg/kg oral once a day, versus DSS and DSS+Vehicle groups, already at day 7
[3] = colon, day 39, DFL 90 mg/kg, 5-ASA 60 mg/kg, compared with DSS+Vehicle
[4] = day 39, DFL23806 90 mg/kg, 5-ASA 60 mg/kg oral once a day, compared to DSS and DSS+Vehicle

Compound: Cc1cc(F)cc(C)c1NS(=O)(=O)c1cccc(CCCCCCC(=O)O)c1 [DFL23806, 7-(3-(N-(4-fluoro-2,6-dimethylphenyl)sulfamoyl)phenyl)heptanoic acid]
- DAI (Disease Activity Index) score (DSS-induced colitis; [2]): significant effect versus the controls
- percentage of body weight loss (DSS-induced colitis; [2]): significant effect versus the controls
- body weight loss / DAI compared with 5-ASA (DSS-induced colitis; DFL23806 90 mg/kg versus 5-ASA 60 mg/kg, at certain time points): even more effective than 5-ASA
- histological score (Rachmilewitz) for extent of flogosis (DSS-induced colitis; [3]): significantly reduced the histological score
- histological score (Rachmilewitz) for extent of ulceration (DSS-induced colitis; [3]): significantly reduced the histological score
- histological score (Rachmilewitz) for flogosis (DSS-induced colitis; [3]): significantly reduced the histological score
- histological score (Rachmilewitz) for ulceration (DSS-induced colitis; [3]): significantly reduced the histological score
- composite endoscopic score (DSS-induced colitis; [4]): significantly inhibit chronic experimental colitis
- endoscopic score: colon thickness (DSS-induced colitis; [4]): significantly inhibit chronic experimental colitis
- endoscopic score: mucosal surface granularity (DSS-induced colitis; [4]): significantly inhibit chronic experimental colitis
- endoscopic score: vascular pattern (DSS-induced colitis; [4]): significantly inhibit chronic experimental colitis
- endoscopic score: visible fibrin (DSS-induced colitis; [4]): significantly inhibit chronic experimental colitis
- colon length (DSS-induced colitis; day 39, DFL23806 90 mg/kg, 5-ASA 60 mg/kg oral once a day, compared to DSS+vehicle): significant inhibitory effect
- AUC(0-inf) [1]: 405 ng·h/mL
- AUC(0-t) [1]: 354 ng·h/mL
- Cmax [1]: 106 ng/mL
- Tmax [1]: 0.5 h
- half-life [1]: 5.8 h
